Assay results published in article PMC9995496, “A screen for MeCP2-TBL1 interaction inhibitors using a luminescence-based assay” (Scientific Reports, 2023).
Structures can show the parent of a compound that is named as a salt.

tested on: PRKACA-PRKAR2A interaction (SmBiT-PRKACA / LgBiT-PRKAR2A), protein kinase A; parameters: NanoLuc complementation counter-screen in cell extract, PRKACA with PRKAR2A, loss of luminescence, detects NanoLuc interference; settings: 0.5 h, 20 µM; inhibitor

SMILES	Inh (PKA)
CC(C(=O)O)C(=O)O [UM0142795:01, Methylmalonate]	-2.942

same assay, conditions: counter-screen for NanoLuc interference, 0.5 h, 20 µM, inhibitor, Inh (PKA)

Inh (PKA)	SMILES
18.36%	O=C(Nc1ccc2[nH]nc(-c3ccncc3)c2c1)[C@@H]1CCN(CC(=O)N2CCN(c3ccc(-c4ncccn4)cc3)CC2)C1 [UM0142677:01, SCH772984 HCl]
21.22%	CN1CCN(c2ccc3nc(-c4c(N)c5c(F)cccc5[nH]c4=O)[nH]c3c2)CC1 [UM0142698:01, Dovitinib (TKI258) Lactate]

same assay, conditions: counter-screen for NanoLuc interference; 0.5 h, 20 µM; inhibitor

Inh (PKA)	SMILES
10.66%	O=S(=O)(N=Cc1c(O)ccc2ccccc12)c1cccs1 [UM0142640:01, STF 083010]
10.96%	O=C(Nc1cccnc1)c1cc(-c2ccnc(F)c2)ccc1OCc1ccccc1 [UM0142641:01, GSK2578215A]
24.94%	Cc1cc(C)c(S(=O)(=O)n2cc(C)cc2C)c(C)c1 [UM0142646:01, HJC 0350]
-0.6597%	N[C@@H](CCNCc1ccc(Cl)cc1)C(=O)N1CCCCC1 [UM0142648:01, UAMC 00039 dihydrochloride]
26.28%	Cn1cc(-c2ccc(F)c(C(F)(F)F)c2)nc1C1CCN(c2ncnc3[nH]ncc23)CC1 [UM0142649:01, LY2584702]
3.502%	CS(=O)(=O)c1ccc(-c2nnc(/C=C/c3nnc(-c4ccc(C#N)cc4)o3)n2-c2ccccc2Cl)nc1 [UM0142653:01, G007-LK]
4.717%	Cc1cc(C)c(CNC(=O)c2cc(-c3ccc(N4CCN(C)CC4)nc3)cc3c2c(C)cn3C(C)C)c(=O)[nH]1 [UM0142656:01, GSK503]
4.603%	C=CC(=O)Nc1cc(Nc2nccc(-c3c[nH]c4ccccc34)n2)c(OC)cc1N(C)CCN(C)C [UM0142657:01, AZ5104]
52.64%	CN(C)S(=O)(=O)c1ccc2c(c1)/C(=C/c1cc3c([nH]1)CCCC3)C(=O)N2 [UM0142659:01, SU6656]
10.71%	Nc1nc(NC2CC2)cc(-c2cccc(Cl)c2Cl)n1 [UM0142662:01, TH588]
10.62%	Cc1cn(-c2cc(NC(=O)c3ccc(C)c(Nc4nccc(-c5cnccn5)n4)c3)cc(C(F)(F)F)c2)cn1 [UM0142663:01, Radotinib(IY-5511)]
9.555%	CNc1cc(-c2cccc(Cl)c2Cl)nc(N)n1 [UM0142665:01, TH287]
6.579%	FC(F)(F)Oc1ccc(-c2ccc3nnc(C(F)(F)F)n3c2)cc1 [UM0142666:01, GS967]
20.65%	CN1CCN(c2ccc(C(=O)Nc3n[nH]c4ccc(Cc5cc(F)cc(F)c5)cc34)c(NC3CCOCC3)c2)CC1 [UM0142673:01, Entrectinib]
4.605%	CNC(=O)c1c(C)oc2cc(Oc3ncnc4cc(OC)c(OC)cc34)ccc12 [UM0142676:01, Fruquintinib(HMPL-013)]
7.912%	Cc1ccc2nc(N)[nH]c(=O)c2c1Sc1ccncc1 [UM0142685:01, Nolatrexed (AG-337)]
17.86%	CC#CC(=O)Nc1ccc2ncnc(Nc3cccc(Br)c3)c2c1 [UM0142687:01, CL-387785 (EKI-785)]
5.106%	Nc1ccc(/C=C/C(=O)NCc2cc3cc(-c4ccc(C(=O)N5CCC(F)(F)CC5)cc4)cc(-c4ccc(F)cc4)c3o2)cn1 [UM0142694:01, KPT-9274]
54.87%	N#CC(c1ccnc(NCCc2cccnc2)n1)c1nc2ccccc2s1 (centres unmarked) [UM0142696:01, AS601245]
7.884%	COc1cc2ncnc(Nc3cccc(Cl)c3F)c2cc1OC(=O)N1CCN(C)C[C@H]1C [UM0142700:01, AZD3759]

Inh (PKA)	SMILES
8.754%	O=C(Cc1ccccc1)Nc1nnc(CCSCCc2nnc(NC(=O)Cc3ccccc3)s2)s1 [UM0142712:01, BPTES]
2.166%	CC(=O)c1cc2c(o1)C(=O)c1ccccc1C2=O [UM0142718:01, Napabucasin]
15.96%	Cc1ccc(Nc2ncc3c(n2)N(C)C(=O)N(c2cc(NC(=O)c4cccc(C(F)(F)F)c4)ccc2C)C3)cn1 [UM0142721:01, GNF-7]
8.033%	CC(C)Oc1ccc(-c2nc(-c3cccc4c3CC[C@@H]4NCCO)no2)cc1C#N [UM0142722:01, Ozanimod (RPC1063)]
9.797%	O=C(NCC(=O)N1CCCC1)Nc1ccc2cnccc2c1 [UM0142726:01, SGC707]
3.261%	O=C(Nc1cc(Cl)cc2c1[nH]c1cnccc12)c1cccnc1 [UM0142732:01, PS-1145]
22.95%	COC(=O)c1ccc([C@@H]2c3[nH]c4ccccc4c3C[C@@H](C(=O)OC)N2C(=O)CCl)cc1 [UM0142735:01, RSL3]
35.49%	CCOC(=O)COc1ccc(/C=C2\SC(=S)NC2=O)cc1OC [UM0142743:01, IMR-1]
13.99%	COc1ccc(/C=C(\C#N)c2cccnc2)cc1OC [UM0142745:01, RG 13022]
10.14%	Cc1cn(CCN2CCN(c3ccccc3-c3cc(C#N)cc(C(=O)NCCCN4CCCC4)c3)CC2)c2ccccc12 [UM0142746:01, LLY507]
-15.82%	Nc1nccc2c1ncn2[C@@H]1O[C@H](CO)[C@@H](O)[C@H]1O [UM0142748:01, 3-Deazaadenosine]
17.17%	Nc1ncc(-c2ccnc(Nc3ccncc3)n2)c(CC2CC2)n1 [UM0142752:01, PIK-III]
7.667%	COc1cc(OCc2cccc(-c3ccccc3)c2C)cc(OC)c1CN1CCCC[C@H]1C(=O)O [UM0142755:01, PD-1/PD-L1 inhibitor 1]
22%	CN1CCc2cc(Nc3ncc(C4CC4)c(NCCCNC(=O)C4CCC4)n3)ccc2C1 [UM0142756:01, MRT68921]
0.6062%	O=C(Nc1cnn2ccc(N3CCC[C@@H]3c3cc(F)ccc3F)nc12)N1CC[C@H](O)C1 [UM0142757:01, LOXO-101]
-0.1491%	CC(C)(C)C(=O)Oc1ccc(S(=O)(=O)Nc2ccccc2C(=O)NCC(=O)O)cc1 [UM0142761:01, Sivelestat (ONO-5046)]
3.32%	Cc1ccc2nc(CN(CCN(Cc3nc4ccc(C)cc4[nH]3)Cc3nc4ccc(C)cc4[nH]3)Cc3nc4ccc(C)cc4[nH]3)[nH]c2c1 [UM0142762:01, NSC348884]
0.4975%	COc1cc(-c2cn(C)c(=O)c3cnccc23)cc(OC)c1CN(C)C [UM0142765:01, BI-7273]
9.037%	CCCOc1ccc(CCc2nc3cc(-c4c(C)noc4C)ccc3n2CCN2CCOCC2)cc1 [UM0142766:01, PF-CBP1]
0.824%	N=C(N)NN [UM0142771:01, Aminoguanidine hydrochloride]

Inh (PKA)	SMILES
0.4324%	CC(C)SC(=N)N [UM0142772:01, S-Isopropylisothiourea hydrobromide]
50.11%	CS(=O)(=O)Nc1ccc([N+](=O)[O-])cc1OC1CCCCC1 [UM0142773:01, NS 398]
3.478%	CCCOc1ccccc1-c1nc2[nH]nnc2c(=O)[nH]1 [UM0142774:01, Zaprinast]
-0.314%	CC1=Nc2ccc(Cl)cc2S(=O)(=O)N1 [UM0142775:01, Diazoxide]
35.58%	COc1ccc(CCCOC(Cn2ccnc2)c2ccc(OC)cc2)cc1 (centres unmarked) [UM0142776:01, SKF 96365 hydrochloride]
-1.118%	CC(N)=NCc1cccc(CN)c1 [UM0142778:01, 1400W dihydrochloride]
0.9875%	CN(C)CCCC1(c2ccc(F)cc2)OCc2cc(C#N)ccc21 (centres unmarked) [UM0142779:01, Citalopram hydrobromide]
-2.134%	Nc1ncnc2c1ncn2C1CCCO1 (centres unmarked) [UM0142780:01, SQ 22536]
24.58%	O=C1OC2(c3ccccc31)c1ccc(O)c(O)c1Oc1c2ccc(O)c1O [UM0142786:01, Gallein]
58.85%	C[C@H](NC(=O)c1sccc1OCc1ccc(Cl)cc1)c1ccccc1 [UM0142788:01, AS 1949490]
-1.723%	COc1ccc(C[C@H](N)C(=O)N[C@H]2[C@@H](O)[C@H](n3cnc4c(N(C)C)ncnc43)O[C@@H]2CO)cc1 [UM0142790:01, Puromycin dihydrochloride]
2.149%	C=CCNc1ncnc2ccc(Br)cc12 [UM0142792:01, SMER 28]
3.916%	CC(C)(C)c1ccc(S(=O)(=O)NCc2ccc(C(=O)Nc3cccnc3)cc2)cc1 [UM0142793:01, STF 31]
1.565%	O=C(O)[C@@]1(CCCCCCOc2ccc(Cl)cc2)CO1 [UM0142794:01, (R)-(+)-Etomoxir sodium salt]
27.6%	COc1nccnc1NS(=O)(=O)c1ccc(NC(=O)/C=C/c2ccc([N+](=O)[O-])s2)cc1 [UM0142796:01, Necrosulfonamide]
0.7014%	COc1cc2c(NC3CCN(C(C)C)CC3)nc(N3CCC(F)(F)CC3)nc2cc1OCCCN1CCCC1 [UM0142799:01, UNC 0642]
85.65%	CCc1c(-c2ccccc2)c(-c2ccccc2)nn1-c1ccccc1-c1cccc(OCC(=O)O)c1 [UM0142801:01, BMS 309403]
7.673%	Nc1nccc(Oc2ccc3c(C(=O)Nc4cccc(C(F)(F)F)c4)cccc3c2)n1 [UM0142802:01, BAW2881 (NVP-BAW2881)]
3.742%	C[C@@H]1CC(=O)Nc2cccc(-c3ccc4c(c3)c(-c3cnn(C)c3)nn4C)c2N1 [UM0142803:01, CPI-637]

SMILES	Inh (PKA)
CC(=O)O/N=C1/C(c2c(O)[nH]c3cc(Br)ccc23)=Nc2ccccc21 [UM0142638:01, BIO-acetoxime]	40.08%
O=C(O)C(=O)c1cn(Cc2ccccc2)c2ccc(-c3ccc(OC(F)(F)F)cc3)cc12 [UM0142688:01, Tiplaxtinin(PAI-039)]	36.69%
CNCC(O)c1ccc(O)cc1 (centres unmarked) [UM0142702:01, Synephrine]	1.654%
Cc1c(Cl)cccc1S(=O)(=O)Nc1nc(CC(=O)N2CCN(C)CC2)cs1 [UM0142740:01, BVT 2733]	1.989%
N[C@@H]1C[C@H]1c1ccccc1 [UM0142789:01, Tranylcypromine hydrochloride]	-0.9566%
COc1ccc(N(C)c2nc(C)nc3ccccc23)cc1 [UM0142800:01, MPC 6827 hydrochloride]	22.54%
